# Biological target: TNF-α (Homo sapiens, UniProt P01375)
# Test: TNF-α Induced HEK Blue Cellular Assay
# Format: cell-based
# Conditions: HEK Blue TNFα reporter cells, TNF-α 100 pg/ml, 24 hrs at 37° C., secreted alkaline phosphatase (QUANTI-Blue, 620 nm)
# Summary of the method: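 Read-out is SEAP via QUANTI-Blue absorbance at 620 nm after a 24 h, 37 °C incubation of reporter HEK Blue cells with 100 pg/ml TNF-α plus compound at final […]–0.5 nM. Percent inhibition normalised to DMSO ± stimulation; 4-parameter logistic fit gives IC50.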
# Chain of TNF-α (P01375 77-233 limits assumed): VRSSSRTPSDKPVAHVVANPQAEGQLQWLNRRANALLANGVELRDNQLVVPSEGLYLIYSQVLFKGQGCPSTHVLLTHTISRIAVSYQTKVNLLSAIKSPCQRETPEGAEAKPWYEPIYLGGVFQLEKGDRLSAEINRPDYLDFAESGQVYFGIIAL
row,IC50 [µM],SMILES
1,≤ 0.1,"Cc1nc2cc(F)c(-c3ccc(P(C)(C)=O)nc3)nc2c(N[C@H](C)c2cccc(F)c2)c1Cl [Example 86, 3-chloro-6-[6-(dimethylphosphoryl)pyridin-3-yl]-7-fluoro-N-[(1R)-1-(3-fluorophenyl)ethyl]-2-methyl-1,5-naphthyridin-4-amine]"
2,1 to 10,"Cc1nc2cc(F)c(-c3ccc(P(C)(C)=O)nc3)nc2c(N[C@H](C)c2ccccc2Cl)c1Cl [Example 87, 3-chloro-N-[(1R)-1-(2-chlorophenyl)ethyl]-6-[6-(dimethylphosphoryl)pyridin-3-yl]-7-fluoro-2-methyl-1,5-naphthyridin-4-amine]"
3,10 to 30,"Cc1nc2cc(F)c(-c3ccc(P(C)(C)=O)nc3)nc2c(N[C@H](C)c2ccc(F)cc2F)c1Cl [Example 88, 3-chloro-N-[(1R)-1-(2,4-difluorophenyl)ethyl]-6-[6-(dimethylphosphoryl)pyridin-3-yl]-7-fluoro-2-methyl-1,5-naphthyridin-4-amine]"
4,10 to 30,"Cc1nc2cc(F)c(-c3ccc(P(C)(C)=O)nc3)nc2c(N[C@H](C)c2c(F)ccc(F)c2F)c1Cl [Example 89, 3-chloro-6-[6-(dimethylphosphoryl)pyridin-3-yl]-7-fluoro-2-methyl-N-[(1R)-1-(2,3,6-trifluorophenyl)ethyl]-1,5-naphthyridin-4-amine]"
5,≤ 0.1,"Cc1nc2cc(F)c(-c3ccc(P(C)(C)=O)nc3)nc2c(N[C@H](C)c2ccccc2)c1Cl [Example 90, 3-chloro-6-[6-(dimethylphosphoryl)pyridin-3-yl]-7-fluoro-2-methyl-N-[(1R)-1-phenylethyl]-1,5-naphthyridin-4-amine]"
6,≤ 0.1,"Cc1nc2cc(F)c(-c3ccc(P(C)(C)=O)nc3)nc2c(N[C@H](C)c2cccc(Cl)c2)c1Cl [Example 91, 3-chloro-N-[(1R)-1-(3-chlorophenyl)ethyl]-6-[6-(dimethylphosphoryl)pyridin-3-yl]-7-fluoro-2-methyl-1,5-naphthyridin-4-amine]"
7,≤ 0.1,"Cc1nc2cc(F)c(-c3ccc(P(C)(C)=O)nc3)nc2c(N[C@H](C)c2cccc(C(F)F)c2)c1Cl [Example 92, 3-chloro-N-[(1R)-1-[3-(difluoromethyl)phenyl]ethyl]-6-[6-(dimethylphosphoryl)pyridin-3-yl]-7-fluoro-2-methyl-1,5-naphthyridin-4-amine]"
8,≤ 0.1,"Cc1nc2cc(F)c(-c3ccc(P(C)(C)=O)nc3)nc2c(N[C@H](C)c2cccc(C(F)(F)F)c2)c1Cl [Example 93, 3-chloro-6-[6-(dimethylphosphoryl)pyridin-3-yl]-7-fluoro-2-methyl-N-[(1R)-1-[3-(trifluoromethyl)phenyl]ethyl]-1,5-naphthyridin-4-amine]"
9,≤ 1,"Cc1nc2cc(F)c(-c3ccc(P(C)(C)=O)nc3)nc2c(NC(C)c2ncccc2F)c1Cl (centres unmarked) [Example 94, 3-chloro-6-[6-(dimethylphosphoryl)pyridin-3-yl]-7-fluoro-N-[1-(3-fluoropyridin-2-yl)ethyl]-2-methyl-1,5-naphthyridin-4-amine]"
10,≤ 0.1,"CC[C@@H](Nc1c(Cl)c(C)nc2cc(F)c(-c3ccc(P(C)(C)=O)nc3)nc12)c1cccc(F)c1F [Example 95, (R)-(5-(7-chloro-8-((1-(2,3-difluorophenyl)propyl)amino)-3-fluoro-6-methyl-1,5-naphthyridin-2-yl)pyridin-2-yl)dimethylphosphine oxide]"
11,≤ 0.1,"CC[C@H](Nc1c(Cl)c(C)nc2cc(F)c(-c3ccc(P(C)(C)=O)nc3)nc12)c1cccc(F)c1F [Example 96, (S)-(5-(7-chloro-8-((1-(2,3-difluorophenyl)propyl)amino)-3-fluoro-6-methyl-1,5-naphthyridin-2-yl)pyridin-2-yl)dimethylphosphine oxide]"
12,≤ 1,"Cc1nc2cc(F)c(-c3ccc(P(C)(C)=O)nc3)c(F)c2c(NC(C)c2ncccc2F)c1Cl (centres unmarked) [Example 97, 3-chloro-6-[6-(dimethylphosphoryl)pyridin-3-yl]-5,7-difluoro-N-[1-(3-fluoropyridin-2-yl)ethyl]-2-methylquinolin-4-amine]"
13,≤ 1,"C#Cc1ccc(F)c([C@@H](C)Nc2c(Cl)c(C)nc3cc(F)c(-c4ccc(P(C)(C)=O)nc4)nc23)c1 [Example 98, 3-chloro-6-[6-(dimethylphosphoryl)pyridin-3-yl]-N-[(1R)-1-(5-ethynyl-2-fluorophenyl)ethyl]-7-fluoro-2-methyl-1,5-naphthyridin-4-amine]"
14,≤ 1,"Cc1nc2cc(F)c(-c3ccc(P(C)(C)=O)nc3)nc2c(N[C@H](C)c2cc(F)cc(C#N)c2)c1Cl [Example 99, 3-[(1R)-1-({3-chloro-6-[6-(dimethylphosphoryl)pyridin-3-yl]-7-fluoro-2-methyl-1,5-naphthyridin-4-yl}amino)ethyl]-5-fluorobenzonitrile]"
15,≤ 1,"CC[C@@H](Nc1c(Cl)c(C)nc2cc(F)c(-c3ccc(P(C)(C)=O)nc3)cc12)c1ncccc1F [Example 102, 3-chloro-6-[6-(dimethylphosphoryl)pyridin-3-yl]-7-fluoro-N-[(1R)-1-(3-fluoropyridin-2-yl)propyl]-2-methylquinolin-4-amine]"
16,10 to 30,"Cc1nc2cc(F)c(-c3ccc(P4(=O)CCOCC4)nc3)cc2c(N[C@H](C)c2cccc(F)c2F)c1Cl [Example 103, 4-[5-(3-chloro-4-{[(1R)-1-(2,3-difluorophenyl)ethyl]amino}-7-fluoro-2-methylquinolin-6-yl)pyridin-2-yl]-1,4lambda5-oxaphosphinan-4-one]"
17,≤ 1,"CCC(Nc1c(Cl)c(C)nc2cc(F)c(-c3ccc(P(C)(C)=O)nc3)nc12)c1cnn(C)c1 (centres unmarked) [Example 104, 3-chloro-6-[6-(dimethylphosphoryl)pyridin-3-yl]-7-fluoro-2-methyl-N-[1-(1-methylpyrazol-4-yl)propyl]-1,5-naphthyridin-4-amine]"
18,≤ 1,"Cc1nc2cc(F)c(-c3ccc(OCP(C)(C)=O)nc3)cc2c(N[C@H](C)c2ccccc2F)c1Cl [Example 105, 3-chloro-6-{6-[(dimethylphosphoryl)methoxy]pyridin-3-yl}-7-fluoro-N-[(1R)-1-(2-fluorophenyl)ethyl]-2-methylquinolin-4-amine]"
19,≤ 0.1,"Cc1nc2cc(F)c(-c3ccc(P(C)(C)=O)nc3)nc2c(N[C@H](C)c2cc(C#N)cc(F)c2F)c1Cl [Example 106, 3-[(1R)-1-({3-chloro-6-[6-(dimethylphosphoryl)pyridin-3-yl]-7-fluoro-2-methyl-1,5-naphthyridin-4-yl}amino)ethyl]-4,5-difluorobenzonitrile]"
20,≤ 1,"Cc1nc2cc(F)c(-c3cnc(P(C)(C)=O)c(F)c3)nc2c(N[C@H](C)c2cccc(F)c2F)c1Cl [Example 107, 3-chloro-N-[(1R)-1-(2,3-difluorophenyl)ethyl]-6-[6-(dimethylphosphoryl)-5-fluoropyridin-3-yl]-7-fluoro-2-methyl-1,5-naphthyridin-4-amine]"
21,≤ 1,"CC[C@@H](Nc1c(Cl)c(C)nc2cc(F)c(-c3ccc(OCP(C)(C)=O)nc3)nc12)c1ncccc1F [Example 108, 3-chloro-6-{6-[(dimethylphosphoryl)methoxy]pyridin-3-yl}-7-fluoro-N-[(1R)-1-(3-fluoropyridin-2-yl)propyl]-2-methyl-1,5-naphthyridin-4-amine]"
22,≤ 0.1,"Cc1nc2cc(F)c(-c3ccc(P(C)(C)=O)nc3)nc2c(NC2(c3ccccn3)CC2)c1Cl [Example 111, 3-chloro-6-[6-(dimethylphosphoryl)pyridin-3-yl]-7-fluoro-2-methyl-N-[1-(pyridin-2-yl)cyclopropyl]-1,5-naphthyridin-4-amine]"
23,≤ 1,"Cc1nc2cc(F)c(-c3ccc(P(C)(C)=O)nc3)cc2c(N[C@H](C)c2cc(F)cc(F)c2)c1Cl [Example 112, 3-chloro-N-[(1R)-1-(3,5-difluorophenyl)ethyl]-6-[6-(dimethylphosphoryl)pyridin-3-yl]-7-fluoro-2-methylquinolin-4-amine]"
24,≤ 1,"CC[C@@H](Nc1c(Cl)c(C)nc2cc(F)c(-c3cnc(P(C)(C)=O)nc3)nc12)c1cccc(F)c1F [Example 113, (R)-(5-(7-chloro-8-((1-(2,3-difluorophenyl)propyl)amino)-3-fluoro-6-methyl-1,5-naphthyridin-2-yl)pyrimidin-2-yl)dimethylphosphine oxide]"
25,≤ 0.1,"CC[C@@H](Nc1c(Cl)c(C)nc2cc(F)c(-c3cnc(P(C)(C)=O)nc3)cc12)c1cccc(F)c1F [Example 114, (R)-(5-(3-chloro-4-((1-(2,3-difluorophenyl)propyl)amino)-7-fluoro-2-methylquinolin-6-yl)pyrimidin-2-yl)dimethylphosphine oxide]"
26,≤ 1,"CC[C@H](Nc1c(Cl)c(C)nc2cc(F)c(-c3cnc(P(C)(C)=O)nc3)cc12)c1cccc(F)c1F [Example 115, (S)-(5-(3-chloro-4-((1-(2,3-difluorophenyl)propyl)amino)-7-fluoro-2-methylquinolin-6-yl)pyrimidin-2-yl)dimethylphosphine oxide]"
27,≤ 1,"Cc1nc2cc(F)c(-c3ccc(P(C)(C)=O)c(F)c3)nc2c(N[C@H](C)c2cccc(Cl)c2F)c1Cl [Example 118, 3-chloro-N-[(1R)-1-(3-chloro-2-fluorophenyl)ethyl]-6-[4-(dimethylphosphoryl)-3-fluorophenyl]-7-fluoro-2-methyl-1,5-naphthyridin-4-amine]"
28,≤ 1,"Cc1nc2cc(F)c(-c3ccc(P(C)(C)=O)nc3)nc2c(N[C@H](C)c2cc(C#N)ccc2F)c1C [Example 119, 3-[(1R)-1-({6-[6-(dimethylphosphoryl)pyridin-3-yl]-7-fluoro-2,3-dimethyl-1,5-naphthyridin-4-yl}amino)ethyl]-4-fluorobenzonitrile]"
29,≤ 0.1,"Cc1nc2cc(F)c(-c3cnc(P(C)(C)=O)c(F)c3)nc2c(N[C@H](C)c2cc(C#N)ccc2F)c1Cl [Example 120, 3-[(1R)-1-({3-chloro-6-[6-(dimethylphosphoryl)-5-fluoropyridin-3-yl]-7-fluoro-2-methyl-1,5-naphthyridin-4-yl}amino)ethyl]-4-fluorobenzonitrile]"
